In brackets after ≈: the same amount, converted by molar mass.
Assays:
Assay type in all cases: functional
Escherichia coli [1] = experiment: Antimicrobial activity against Escherichia coli J53 harboring QnrS2 and GyrA Ile83 and ParC Ile80 mutant gene by Etest
Escherichia coli [2] = experiment: Antimicrobial activity against Escherichia coli J53 by Etest
Aeromonas veronii [3] = experiment: Antimicrobial activity against QnrS2-positive Aeromonas veronii A272 harboring GyrA Ile83 and ParC Ile80 mutant gene by Etest
Aeromonas veronii [4] = experiment: Antimicrobial activity against QnrS2-negative Aeromonas veronii CECT 4258 harboring GyrA Ser83 and ParC Ser80 mutant gene by Etest
Aeromonas veronii [5] = experiment: Antimicrobial activity against QnrS2-negative Aeromonas veronii CECT 4260 harboring GyrA Ser83 and ParC Ser80 mutant gene by Etest

SMILES | MIC (Escherichia coli [1]) | MIC (Escherichia coli [2]) | MIC (Aeromonas veronii [3]) | MIC (Aeromonas veronii [4]) | MIC (Aeromonas veronii [5])
CCn1cc(C(=O)O)c(=O)c2ccc(C)nc21 [NALIDIXIC ACID] | > 256 µg/mL | 4 µg/mL (≈ 17.2 µM) | > 256 µg/mL | < 0.25 µg/mL | < 0.25 µg/mL
CCn1cc(C(=O)O)c(=O)c2cc(F)c(N3CCNCC3)cc21 [NORFLOXACIN] | 2 µg/mL (≈ 6.26 µM) | 0.19 µg/mL (≈ 0.595 µM) | 12 µg/mL (≈ 37.6 µM) | < 0.02 µg/mL | < 0.02 µg/mL
O=C(O)c1cn(C2CC2)c2cc(N3CCNCC3)c(F)cc2c1=O [CIPROFLOXACIN] | – | 0.023 µg/mL (≈ 0.0694 µM) | 8 µg/mL (≈ 24.1 µM) | < 0.02 µg/mL | < 0.02 µg/mL

Source: ChEMBL document CHEMBL1275465, “Plasmid-mediated QnrS2 determinant from a clinical Aeromonas veronii isolate” (2008)
